The text below walks through data of article PMC9695592, “Phenotypic Evaluation of Nucleoside Analogues against Trypanosoma cruzi Infection: In Vitro and In Vivo Approaches” (Molecules, 2022).

As a reminder, the EC50 is the midpoint of the concentration-response curve. Broadly, the EC90 is the concentration needed for an effect of 90%.

The test system of test [1] is bloodstream trypomastigotes of T. cruzi (Y strain). As to the kind of experiment: Activity against bloodstream trypomastigotes, light microscopy counting. The test is classed as cell-based. To be noted: Trypanosoma cruzi, 24 h of compound incubation, 95% confidence interval in brackets; for EC50: read-out: Activity upon Bloodstream Forms EC50; for EC90: read-out: Activity upon Bloodstream Forms EC90. How it is done:
Bloodstream trypomastigotes of the Y strain (DTU II) were obtained by cardiac puncture of infected Swiss Webster mice on the parasitemia peak to perform drug sensitivity assays. Trypomastigote forms of the Tulahuen-β gal strain were collected from the supernatant of previously infected L929 cell cultures (host/parasite cell ratio 10:1). The intracellular forms T. cruzi were studied by the infection of L929 and H9C2 (2D and 3D) cell cultures infected for 48 and 24 h with trypomastigotes of Tulahuen-β gal and Y strains, respectively. The Leishmania mexicana-Cas9 T7 strain (LmexCas9) was derived from L. mexicana WT promastigotes by expression of the Streptococcus pyogenes Cas9 nuclease gene ‘Cas9′ and maintained on 32 μg/mL hygromycin [51]. This strain and the derived strains Cas9^ΔNT1 and Cas9^ΔNT1+TcrNT2 were cultured in HOMEM medium supplemented with 10% of FBS and 1% Penicillin-Streptomycin antibiotic in unvented flasks at 25 °C [52]. The Cas9^ΔNT1 strain is identical to Cas9 except that the LmexNT1.1/NT1.2 locus encoding the L. mexicana adenosine/ pyrimidine transporters was excised using Cas9 [17, 40]. Cas9^ΔNT1+TcrNT2 is the further modification of that strain by the expression of the T. cruzi nucleoside transporter 2 (TcrNT2) gene in it, using the vector pNUS-HcN [53]. Appropriate antibiotics were added for the selection and maintenance of transfectants.
To analyze the compound activity against bloodstream trypomastigotes of T. cruzi (Y strain), […] of parasite were added in 96-well microtiter plates and incubated for 2 or for 24 h at 37 °C in RPMI culture medium in the presence or absence of each compound (up to 30 µM). The death rates were quantified by light microscopy using a Neubauer chamber to determine the EC50 [49, 58]. The data results from two independent experiments performed in duplicate were obtained.

In test [2] the test system is T. cruzi (Y strain) in male Swiss mice. As to the kind of experiment: Mouse model of acute T. cruzi infection (Y strain). Format: in vivo. The note with it: for parasite DNA amplification in blood (qPCR): 77 dpi, heart puncture, derivatives 25 mg/kg/day, Bz 100 mg/kg/day, 5 days oral, limit of detection 0.47 eq par/mL; for reduction of parasitemia: gavage once a day, 5 consecutive days, 25 mg/kg/day, from parasitemia onset, p < 0.05; for protection against loss of weight induced by acute infection: 25 mg/kg/day oral, 5 days. How it is done:
Thus, a proof-of-concept study was performed in T. cruzi-infected mice. The infected animals were treated (gavage, once a day) for 5 consecutive days with the derivatives (25 mg/kg/day) or Bz (100 mg/kg/day), starting drug administration at the parasitemia onset, usually on day 5 dpi, following doses and protocols already established for the other nucleoside derivatives.
The synthesis and characterization of FH11706, FH10714 [46] and FH8513 [19] were previously reported. Benznidazole (Bz) was purchased from Laboratório Farmacêutico do Estado de Pernambuco (Brazil). […] For in vivo assays, Bz was formulated using 3% Tween 80 in distilled water and the nucleoside analogues in 10% (v/v) EtOH, with 1.1 mM aqueous citrate buffer pH 3.2 and dosed according to animal body weight.
Male Swiss Webster mice (18−20 g; 4−5 weeks of age) were obtained from the Institute of Sciences and Technologies in Biomodels (ICTB-FIOCRUZ), housed with a maximum of 5 animals per cage and kept in a specific pathogen-free (SPF) room at 20−24 °C under a 12 h light and 12 h dark cycle. All animals received sterilized water and food ad libitum. The animals were acclimatized for 7 days before the experiments. To detect possible toxic events, nucleoside analogues and Bz were orally given to non-infected Swiss male mice (n = 2) for 5 consecutive days, with a fixed dose of 50 mg/kg (0.1 mL). On day 5, all animals were euthanized to inspect toxic and subtoxic symptoms. For a proof-of-concept study, animals were infected by i.p. administration of 10^4 bloodstream trypomastigotes (Y strain), and drug administration started at the onset of parasitemia (6 dpi), only using mice with detectable parasitemia. Control mice groups were age-matched and housed under identical conditions. The following experimental groups were used (3 mice per group): untreated (infected vehicle-treated control) and treated (infected and treated with derivatives or with benznidazole). The derivatives and Bz were given orally (gavage) for five consecutive days at 25 mg/kg and 100 mg/kg, respectively, once a day. Parasitemia levels in T. cruzi assays were individually checked by light microscopic counting of parasites in 5 μL of blood, as described. For blood qPCR analysis, 500 µL of blood was diluted in a 1:2 volume of guanidine solution and heated for 60 s in boiling water, followed by DNA purification using High Pure PCR Template Preparation Kit (Roche Applied Science) and quantitative real-time multiplex PCR assays. TaqMan probes were used for quantification of both T. cruzi satellite nuclear DNA and internal amplification control (IAC), as described in Duffy et al. (2013), using the following primer and prober sets: Cruzi1 5′-[…]-3′ (750 nM), Cruzi2 5′-[…]-3′ (750 nM), Cruzi3 FAM-5′-CACACACTGGACACCAA-3′-NFQ-MGB (50 nM), IAC Fw 5′-[…]-3′ (100 nM), IAC Rv 5′-[…]-3′ (100 nM) and IAC Tq 5′-VIC-AGCATCTGTTCTTGAAGGT-NFQ-MGB-3′ (50 nM). The cycling conditions were a first step of 10 min at 95 °C, followed by 40 cycles at 95 °C for 15 s and 58 °C for 1 min. The amplifications were carried out in a Quantstudio 3 real-time PCR system (Applied Biosystems), with the threshold set at 0.02 in all runs. Standard curves were constructed for absolute quantification through the serial dilution of total DNA, ranging from 10^5 parasite equivalent to 1 parasite equivalent per mL of blood, obtained with a negative blood sample in guanidine-EDTA. Parasite load was expressed as equivalent of parasite DNA per mL of blood.
On the technique in general: In qPCR the cycle at which signal appears reflects the starting amount.

Take `Nc1ncnc2c1c(-c1ccc(Cl)c(F)c1)cn2[C@@H]1O[C@H](CO)[C@@H](O)[C@H]1O` [FH10714, 7-(3-fluoro,4-chlorophenyl)tubercidin]: in test [1], the EC50 stood at 13.4 µM and the EC90 is over 30 µM. In test [2], the “parasite DNA amplification in blood (qPCR)” value (“parasite DNA amplification” for short) turned out to be 0.046 ± 0.038 eq par/mL and the reduction of parasitemia was 99.58%. Further, in test [2] (oral once a day for 5 days (derivatives 25 mg/kg), blood qPCR), the “sterile (parasitological) cure in mice” value is listed as “incapable to promote a parasitological cure”.
For `Nc1ncnc2c1c(-c1ccc(F)c(F)c1)cn2[C@@H]1O[C@H](CO)[C@@H](O)[C@H]1O` [FH11706, 7-(3,4-Difluorophenyl)tubercidin], in test [1], the EC50 was determined as 17.6 µM and the EC90 was over 30 µM. Also, in test [2], the “protection against loss of weight induced by acute infection” value is recorded as “strongly protected”, the “parasite DNA amplification” value worked out at 0.038 ± 0.016 eq par/mL and the reduction of parasitemia amounted to 98.4%.
The corresponding values for `Nc1ncnc2c1c(-c1ccc(Cl)c(Cl)c1)cn2[C@@H]1O[C@H](CO)C[C@H]1O` [FH8513, 7-(3,4-dichlorophenyl)-3′-deoxytubercidin] are 5.9 µM, 16.7 µM, “strongly protected”, 0.287 ± 0.017 eq par/mL and 99.48%.
Turning to `O=C(Cn1ccnc1[N+](=O)[O-])NCc1ccccc1` [Bz, Benznidazole, reference compound], in test [1], the EC50 came out at 6.9 µM and the EC90 amounted to 19.6 µM. In addition, in test [2], the “parasite DNA amplification” value turned out to be 0.187 ± 0.082 eq par/mL.
